Experimental data reported in PubChem BioAssay (NCI).
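All cell lines were grown in 96-well plates and treated with compound for 48 hours. GI50 marks 50% less growth. Definition used: TGI = concentration required for complete inhibition of growth.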

How the values were obtained:
Assay in all cases: NCI-60 cell line screen, 48 h
[1] = test system: A498 renal
[2] = test system: CCRF-CEM leukemia
[3] = test system: M14 melanoma
[4] = test system: NCI-H23 lung
[5] = test system: SF-539 CNS
[6] = test system: SK-OV-3 ovarian
[7] = test system: SF-295 CNS
[8] = test system: SNB-75 CNS
[9] = test system: SK-MEL-2 melanoma
[10] = test system: SR leukemia

Structure (SMILES)	TGI [1] [µM]	TGI [2] [µM]	TGI [3] [µM]	TGI [4] [µM]	TGI [5] [µM]	TGI [6] [µM]	TGI [7] [µM]	TGI [8] [µM]	TGI [9] [µM]	TGI [10] [µM]	GI50 [1] [µM]	GI50 [3] [µM]	GI50 [4] [µM]	GI50 [5] [µM]	GI50 [6] [µM]	GI50 [7] [µM]	GI50 [8] [µM]	GI50 [9] [µM]	GI50 [10] [µM]	GI50 [2] [µM]
O/N=C1/C(=C/c2ccc(F)cc2)CCCC1C(NO)c1ccc(F)cc1 (configuration not stated)	> 100	> 100	> 100	51.7	> 100	> 100	> 100	> 100	> 100											
CCCCCCC(=O)C/C(CCC(=O)N(Cc1ccccc1)Cc1ccccc1)=N\Nc1ccc([N+](=O)[O-])cc1[N+](=O)[O-]	> 100	56.1	> 100	> 100	> 100	> 100	> 100	> 100	> 100											
COc1cc(C2C(Cl)C(=O)N2n2cnc3ccccc3c2=O)cc(OC)c1OC (configuration not stated)		> 100	> 100	> 100		> 100	> 100	> 100	> 100	> 100										
CCOP(=O)(OCC)C1C(=O)O[C@H]2CCCC[C@@H]12 (some centres not stated)	> 100	> 100	> 100	> 100	> 100	> 100	> 100	> 100	> 100											
OB([O][Hg][c]1ccccc1)[O][Hg][c]1ccccc1	2.48		0.977	2.17	2.34	2.97	3.17	1.36	0.509		0.98	0.283	0.784	1.09	1.6	1.6	0.291	0.168		
CCCCN(CCCC)C(=O)C(=O)CC(=O)c1ccc(Br)cc1	> 100	> 100	> 100	> 100	> 100	> 100	> 100		> 100											
CC1=C(C(=O)Nc2ccccc2)C(c2ccc3c(c2)OCO3)C(C(=O)Nc2ccccc2)=C(C)N1	> 100	41	> 100	> 100	76	> 100	> 100		74.5											
COc1cc2cc(Oc3ccc(NC(=O)Nc4cccc(C(F)(F)F)c4)cc3)c(C)nc2cc1OCCN1CCCCC1	2.9		3.27	3.26	3.05	3.8	3.24	2.37		2.52	1.45	1.79	1.7	1.67	2.06	1.8	1.15		0.479	
CC12OC(C(=O)C13CC3)C1C(=O)c3ccccc3C(=O)C12 (configuration not stated)		42.5	> 100	> 100	54.6	74.8		> 100	> 100			41	29.5	24.2	25.3		77.5	47.1		13.9
